The term IC50 denotes the concentration that gives 50% inhibition.

The source of these data is ChEMBL document CHEMBL6078728 (Bioorg Med Chem, 2025).

Series [1] can be described thus: Inhibition of NLRP3 inflammasome activation in LPS/ATP stimulated human THP-1 cells assessed as inhibition of IL-1beta production pretreated with compound for 15 mins followed by LPS and ATP addition and measured after 2 hrs by ELISA. It counts as cell-based. (In general: ELISA stands for enzyme-linked immunosorbent assay.)
A short description of series [2]: Drug concentration in male Sprague-Dawley rat brain at 10 mg/kg, ip measured after 1 hr by LC-MS/MS analysis. The conditions noted are these: read-out: Ct. The series is classed as ADME, organism-based.
Series [3] in a line: Inhibition of NLRP3 inflammasome activation in LPS primed mouse BMDM cells assessed as inhibition of IL-1beta production preincubated with compound for 1 hr followed by nigericin stimulation and measured after 1 hr by ELISA method. It counts as cell-based.
A short description of series [4]: Drug concentration in male Sprague-Dawley rat plasma at 10 mg/kg, ip measured after 1 hr by LC-MS/MS analysis. It counts as ADME, organism-based.
Series [5] in a line: Ratio of drug concentration in brain to plasma in male Sprague-Dawley rat at 10 mg/kg, ip measured after 1 hr by LC-MS/MS analysis. The series is classed as ADME, organism-based. The conditions noted are these: brain and plasma, read-out: BPR.
The target of series [6] is NACHT, LRR and PYD domains-containing protein 3 (Rattus norvegicus) (UniProt D4A523). As to conditions: wistar, dose <= 30.0 mg/kg, route po, time 30.0 min.
Sequence of NACHT, LRR and PYD domains-containing protein 3 (Rattus norvegicus) (D4A523 whole entry, the tested form may be a part): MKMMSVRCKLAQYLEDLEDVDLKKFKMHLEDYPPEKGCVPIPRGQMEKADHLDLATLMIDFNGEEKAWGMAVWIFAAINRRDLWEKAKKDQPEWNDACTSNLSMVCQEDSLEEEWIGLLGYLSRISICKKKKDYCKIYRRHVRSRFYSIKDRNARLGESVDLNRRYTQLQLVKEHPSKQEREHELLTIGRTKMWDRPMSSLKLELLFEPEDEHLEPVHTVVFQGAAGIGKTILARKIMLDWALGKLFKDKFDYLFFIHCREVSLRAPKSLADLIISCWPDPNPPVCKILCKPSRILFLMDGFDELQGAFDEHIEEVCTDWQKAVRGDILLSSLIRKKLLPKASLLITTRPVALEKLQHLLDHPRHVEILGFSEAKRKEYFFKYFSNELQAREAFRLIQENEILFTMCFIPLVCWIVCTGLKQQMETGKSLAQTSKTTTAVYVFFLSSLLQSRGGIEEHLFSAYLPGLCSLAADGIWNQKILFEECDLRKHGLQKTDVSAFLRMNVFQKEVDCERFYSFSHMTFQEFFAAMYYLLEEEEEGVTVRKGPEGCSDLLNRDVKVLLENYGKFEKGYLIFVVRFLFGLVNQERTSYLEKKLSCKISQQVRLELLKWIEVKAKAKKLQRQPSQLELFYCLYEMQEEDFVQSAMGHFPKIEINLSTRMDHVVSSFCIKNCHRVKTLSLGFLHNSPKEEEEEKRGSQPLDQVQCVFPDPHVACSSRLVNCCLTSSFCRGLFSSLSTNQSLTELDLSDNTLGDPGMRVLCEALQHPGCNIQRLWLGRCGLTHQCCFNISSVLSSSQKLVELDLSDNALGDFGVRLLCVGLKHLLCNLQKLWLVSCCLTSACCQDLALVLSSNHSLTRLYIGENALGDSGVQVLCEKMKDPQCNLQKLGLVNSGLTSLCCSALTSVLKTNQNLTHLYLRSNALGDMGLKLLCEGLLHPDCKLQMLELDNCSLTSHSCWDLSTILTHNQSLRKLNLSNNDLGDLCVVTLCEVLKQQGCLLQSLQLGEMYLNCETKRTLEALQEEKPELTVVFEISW
A further series concerns THP-1. Briefly: Antiinflammatory activity against LPS/ATP stimulated human THP-1 cells assessed as ASC speck formation by DAPI staining based cell analyzer. It counts as functional.
The nature of series [7]: Drug concentration in male Sprague-Dawley rat plasma at 5 mg/kg, ip measured after 1 hr by LC-MS/MS analysis. It counts as ADME, organism-based.
Series [8] is described as follows: Inhibition of NLRP3 inflammasome activation in LPS stimulated human THP-1 cells assessed as inhibition of TNF-alpha production pretreated with compound for 15 mins followed by LPS and ATP addition and measured after 2 hrs by ELISA. It counts as cell-based.
Series [9] can be described thus: Drug concentration in male Sprague-Dawley rat brain at 5 mg/kg, ip measured after 1 hr by LC-MS/MS analysis. It counts as ADME, organism-based. The conditions noted are these: read-out: Ct.
A short description of series [10]: Ratio of drug concentration in brain to plasma in male Sprague-Dawley rat at 5 mg/kg, ip measured after 1 hr by LC-MS/MS analysis. It counts as ADME, organism-based. As to conditions: brain and plasma, read-out: BPR.
Series [11] can be described thus: Intrinsic clearance in rat liver microsomes at 0.2 uM in presence of NADPH incubated for 30 mins by LC-MS/MS analysis. The series is classed as ADME, Microsome. As to conditions: read-out: CLH. For orientation: Liver microsomes are vesicles of endoplasmic reticulum, rich in cytochrome P450 enzymes.
A short description of series [12]: Inhibition of NLRP3 inflammasome activation in alpha-synuclein pre-formed fibril stimulated human THP-1 cells assessed as inhibition of IL-1beta production preincubated with compound for 15 mins followed by alpha-synuclein pre-formed fibril addition and measured after 24 hrs by ELISA. The series is classed as cell-based.
Series [13] deals with Mus musculus. Briefly: Improvement of motor dysfunction in pathogenic alpha-synuclein induced male C57BL/6J mouse assessed as reduction in number of falls at 1 mg/kg, po administered once a day for 4 weeks and measured 1 hr after last administration by hanging wire test. It counts as functional, organism-based.
Series [14] in a line: Ratio of drug concentration in brain to plasma in male Sprague-Dawley rat at 10 mg/kg, po measured after 1 hr by LC-MS/MS analysis. The series is classed as ADME, organism-based. The conditions noted are these: brain and plasma, read-out: BPR.
Series [15] is described as follows: Intrinsic clearance in human liver microsomes at 0.2 uM in presence of NADPH incubated for 30 mins by LC-MS/MS analysis. The series is classed as ADME, Microsome. The conditions noted are these: read-out: CLH.
Series [16] has as its system Mus musculus. Briefly: Improvement of motor dysfunction in pathogenic alpha-synuclein induced male C57BL/6J mouse assessed as reduction in number of falls at 10 mg/kg, po administered once a day for 4 weeks and measured 1 hr after last administration by hanging wire test. It counts as functional, organism-based.
In series [17] the target is NACHT, LRR and PYD domains-containing protein 3 (Rattus norvegicus) (UniProt D4A523). Kind of series: In vivo inhibition of NLRP3 activation in LPS-induced male wistar rat model assessed as inhibition of IL-1 beta production in CSF at 3 mg/kg, po measured after 30 mins by Western blotting analysis. The series is classed as functional, organism-based. (A western blot detects proteins with antibodies after separation by electrophoresis.)

Series [18] shares this target. Kind of series: In vivo inhibition of NLRP3 activation in LPS-induced male wistar rat model assessed as inhibition of IL-1 beta production in CSF at 1 mg/kg, po measured after 30 mins by Western blotting analysis. It counts as functional, organism-based.
For series [19] the target is unchanged. Briefly: In vivo inhibition of NLRP3 activation in LPS-induced male wistar rat model assessed as inhibition of IL-1 beta production in CSF at 0.3 mg/kg, po measured after 30 mins by Western blotting analysis. The series is classed as functional, organism-based.

Active and inactive are the calls of the source. The rule behind the calls is not given here.

Turning to `OCCCNc1nnc(-c2ccc(C(F)(F)F)cc2Cl)c2ccccc12`, the IC50 in series [1] is 350 nM.
Still for that read-out and setting: in the case of `OCCNc1nnc(-c2ccc(C(F)(F)F)cc2)c2ccccc12` it was 610 nM; in that of `C[C@H](O)CNc1nnc(-c2ccc(C(F)(F)F)cc2)c2ccccc12`, 230 nM; in that of `CC(CCO)Nc1nnc(-c2ccc(C(F)(F)F)cc2)c2ccccc12` (stereo not given), 3500 nM.
On to `Cc1c(N[C@H]2CCC[C@@H]2O)nnc(-c2ccc(C(F)(F)F)cc2O)c1C`, for which the 50% inhibitory concentration (IC50) in [1] amounted to 650 nM.
On the same count and under the same terms, in the case of `OCCCNc1nnc(-c2ccccc2C(F)(F)F)c2ccccc12` it was 5200 nM; in that of `Cc1cc(NC[C@@H](C)O)nnc1-c1ccc(C(F)(F)F)cc1C(F)(F)F`, 200 nM; in that of `OCCCNc1nnc(-c2cccc(C(F)(F)F)c2)c2ccccc12`, 17000 nM.
Same read-out and setting: in the case of `CC(O)CCNc1nnc(-c2ccc(C(F)(F)F)cc2)c2ccccc12` (stereo not given) it was 1200 nM; in that of `OCCCNc1nnc(-c2ccc(C(F)(F)F)cc2C(F)(F)F)c2ccccc12`, 110 nM.
With `CC(C)(O)c1coc(S(=O)(=O)NC(=O)Nc2c3c(cc4c2CCC4)CCC3)c1`, the concentration at 1 h came to 23.1 ng/g in series [2] and 2320 ng/mL in series [4]. In addition, in series [3], the IC50 was determined as 7.5 nM. For the same compound, in series [5], the Kp at 1 h was 0.01. Also, the inhibition entry in [6] was “inactive”.
With `OCCCNc1nnc(-c2ccc(C(F)(F)F)c(F)c2)c2ccccc12`, the IC50 in series [1] is 980 nM.
The same measure, in the same setting: for `Cc1cc(-c2ccc(C(F)(F)F)cc2O)nnc1NC[C@@H](C)O` the value was 160 nM.
Take `Cc1ccc(-c2nnc(NCCCO)c3ccccc23)cc1`: the results for the IC50 (in the series with THP-1; in series [1]; in series [8]) were 3100 nM, 2000 nM and greater than 10000 nM, respectively. Also, the figures for the concentration at 1 h in series [7] and in series [9] were 360 ng/mL and 117 ng/g, respectively. The Kp at 1 h in series [10] came to 0.33.
`Cc1c(NC[C@@H](C)O)nnc(-c2ccc(C(F)(F)F)cc2C(F)(F)F)c1C`: the IC50 in series [1] was found to be 210 nM.
On the same count and under the same terms, for `C[C@@H](O)CNc1nnc(-c2ccc(C(F)(F)F)cc2)c2ccccc12` the value was 140 nM.
The same measure, in the same setting: in the case of `Cc1c(NC[C@@H](C)O)nnc(-c2ccc(C(F)(F)F)cc2O)c1C` it was 14 nM.
Turning to `OCCCNc1nnc(-c2ccc(C(F)(F)F)cc2)c2ccccc12`, the IC50 in series [1] was found to be 370 nM.
`CC(C)(CO)CNc1nnc(-c2ccc(C(F)(F)F)cc2)c2ccccc12`: the IC50 in [1] was 1000 nM.
Still for that read-out and setting: in the case of `Cc1c(N[C@@H]2CCC[C@H]2O)nnc(-c2ccc(C(F)(F)F)cc2O)c1C` it was 28 nM; in that of `OCCCNc1nnc(-c2ccc(C(F)(F)F)cc2F)c2ccccc12`, 510 nM.
As to `Cc1c(NC[C@@H](C)O)nnc(-c2ccc(C(F)(F)F)cc2C(F)F)c1C`, the IC50 in series [1] was found to be 590 nM.
For `COCCCNc1nnc(-c2ccc(C(F)(F)F)cc2)c2ccccc12`, in [1], the IC50 was 1700 nM.
On the same count and under the same terms, for `Cc1c(N[C@H]2CCC[C@H]2O)nnc(-c2ccc(C(F)(F)F)cc2O)c1C` the value was 27 nM; for `C[C@@H](O)CNc1ccc(-c2ccc(C(F)(F)F)cc2C(F)(F)F)nn1`, 150 nM.
On the same count and under the same terms, in the case of `Cc1cc(C(F)(F)F)ccc1-c1nnc(NCCCO)c2ccccc12` it was 490 nM; in that of `C[C@@H](O)CNc1nnc(-c2ccc(C(F)(F)F)cc2C(F)(F)F)c2ccccc12`, 57 nM; in that of `CC(CO)CNc1nnc(-c2ccc(C(F)(F)F)cc2)c2ccccc12` (stereo not given), 230 nM.
Same read-out and setting: for `Cc1cc(-c2ccc(C(F)(F)F)cc2C(F)(F)F)nnc1NC[C@@H](C)O` the value was 90 nM.
Consider `Cc1cc(NC[C@@H](C)O)nnc1-c1ccc(C(F)(F)F)cc1O`, for which the IC50 in [1] came out at 17 nM.
Consider `Cc1c(N[C@@H]2CCCC[C@H]2O)nnc(-c2ccc(C(F)(F)F)cc2O)c1C`, for which the IC50 in the series with THP-1 is 5.7 nM; in series [12] it was 6.3 nM; in series [8], greater than 10000 nM. Moreover, the microsomal CLint at 0.2 µM in [11] and in series [15] was less than 20 µL/min/mg in each case. Further, the outcome in the series with Mus musculus [13] and in the series on Mus musculus [16] was Active. The Kp at 1 h in [14] worked out at 0.94. Further, the inhibition result in [17], in [18] and in series [19] was “Active” in each case.
